# Reference: patent publication US6471973B2 (Coletica, priority 1998, dated 2002)
# What was measured:
# [1] = target: T1, human leukocytic elastase (Homo sapiens, UniProt P08246); assay: Determination of the anti-elastase activity (elastin-rhodamine, fluorescence); format: biochemical; conditions: solubilized in ethoxydiglycol, 20 min at 37° C.
# T1 sequence (P08246 30-267): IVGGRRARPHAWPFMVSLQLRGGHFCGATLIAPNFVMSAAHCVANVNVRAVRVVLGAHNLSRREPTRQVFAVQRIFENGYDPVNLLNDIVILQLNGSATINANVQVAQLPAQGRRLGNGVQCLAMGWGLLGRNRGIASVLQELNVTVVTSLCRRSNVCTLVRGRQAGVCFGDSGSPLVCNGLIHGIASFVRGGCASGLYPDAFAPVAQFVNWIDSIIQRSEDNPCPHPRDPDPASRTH
# Protocol: The enzymatic substrate elastin-rhodamine is dissolved in TrisHCl buffer (31.52 g of TrisHCl, water qsp 1000 ml) of pH 8.8 at a rate of 15 mg/ml. 1 mg of human leukocytic elastase is dissolved in 20 ml of TrisHCl buffer. The products of the invention are evaluated for their capacity to inhibit the degradation of elastin, which can be followed by fluorescence (excitation at 530 nm; emission at 590 nm) after the incubation, for 20 min at 37° C., of a mixture comprising the substrate, the enzyme and the inhibitor to be tested. The results are given as % inhibition relative to the inhibitor-free control.
# [2] = Oxidation stability test on flavonoids in simple preparations (color of solutions); format: physicochemical; conditions: 0.103 M in ethoxydiglycol, Pantone color
# Protocol: A solution of […] containing 31.1 g/l (i.e. 0.103 M) is prepared in ethoxy-diglycol. The pH is adjusted to 5 or 6 and then 10 g/l of a preservative based on parabens are added to the mixture in order to avoid bacterial pollution. […] At identical molar concentrations, the two products are therefore compared for their oxidation stability, the color parameters being used as the stability indicators. The color references given in the Examples which follow refer to the Pantone colors as used in all the paint color charts well known to those skilled in the art.
# [3] = Oxidation stability test on flavonoids in complex preparations (emulsions); format: physicochemical; conditions: 45° C.
# Protocol: Oxidation stability test on flavonoids in complex preparations (emulsions) Composition of the formulation: [table] After studying the stabilities over about 1 month, it can be said that the color of the formulations containing flavonoids used in the form which has not been rendered lipophilic undergoes an extremely unfavorable change at 45° C.
# [4] = Determination of the free radical inhibiting activity in vitro; conditions: 30 minutes; for % free radical inhibiting activity: dissolved in ethoxydiglycol, control subtracted; for Free radical inhibiting activity: compound at 25 mM, dissolved in DMSO, DMSO control subtracted
# Protocol: A 60 μM solution of 1,1-diphenyl-2-picrylhydrazyl in ethanol is placed in contact, for 30 minutes at room temperature, with a sample originating from the products of the invention whose free radical inhibiting power is to be determined. […] The higher the percentage decrease, the stronger will be the free radical inhibiting activity of the active ingredient tested.
# [5] = in vivo
# Protocol: This preparation is used for the following toxicity studies:
# The tests were performed by the official method in accordance with the decree of Feb.
# [6] = test concentration 1.03^−3 mol/l
# [7] = test concentration 1.03^−4 mol/l
# [8] = test concentration 1.03^−5 mol/l
molecule,measurement,setting,value
"COc1ccc([C@@H]2CC(=O)c3c(O)cc(O)cc3O2)cc1O [Hesperitin, hesperitin]",Anti-elastase test: % inhibition relative to the inhibitor-free control,[1]; [6],20%
same,Anti-elastase test: % inhibition relative to the inhibitor-free control,[1]; [7],24%
same,Anti-elastase test: % inhibition relative to the inhibitor-free control,[1]; [8],0%
same,Color of the solutions 1 day after manufacture,"[2]; pH 5, 4° C.",157C
same,Color of the solutions 21 days after manufacture,"[2]; pH 5, 4° C.",black +
same,Color of the solutions 1 day after manufacture,"[2]; pH 5, 20° C.",157C
same,Color of the solutions 21 days after manufacture,"[2]; pH 5, 20° C.",black +
same,Color of the solutions 1 day after manufacture,"[2]; pH 5, 45° C.",157C
same,Color of the solutions 21 days after manufacture,"[2]; pH 5, 45° C.",black +
same,Color of the solutions 1 day after manufacture,"[2]; pH 6, 4° C.",157C
same,Color of the solutions 21 days after manufacture,"[2]; pH 6, 4° C.",black +
same,Color of the solutions 1 day after manufacture,"[2]; pH 6, 20° C.",157C
same,Color of the solutions 21 days after manufacture,"[2]; pH 6, 20° C.",black +
same,Color of the solutions 1 day after manufacture,"[2]; pH 6, 45° C.",157C
same,Color of the solutions 21 days after manufacture,"[2]; pH 6, 45° C.",black +
same,"Stability test: color of cream, T 1 day",[3]; 520 μM in cream (emulsion),light beige
same,"Stability test: color of cream, T 7 days",[3]; 520 μM in cream (emulsion),yellow
same,"Stability test: color of cream, T 25 days",[3]; 520 μM in cream (emulsion),yellow
same,"Stability test: color of cream, T 35 days",[3]; 520 μM in cream (emulsion),yellow
same,"Stability test: color of cream, T 1 day",[3]; 1043 μM in cream (emulsion),more
same,"Stability test: color of cream, T 7 days",[3]; 1043 μM in cream (emulsion),very yellow
same,"Stability test: color of cream, T 25 days",[3]; 1043 μM in cream (emulsion),very yellow
same,"Stability test: color of cream, T 35 days",[3]; 1043 μM in cream (emulsion),very yellow
same,% free radical inhibiting activity,[4]; 0.103 mol/l,94%
same,% free radical inhibiting activity,[4]; 1.03^−3 mol/l,28%
same,% free radical inhibiting activity,[4]; 1.03^−5 mol/l,8%
same,Free radical inhibiting activity,[4],42%
hesperitin diacylated by C12 [Example 6],Anti-elastase test: % inhibition relative to the inhibitor-free control,[1]; test concentration 0.103 mol/l,100%
same,Anti-elastase test: % inhibition relative to the inhibitor-free control,[1]; [6],65%
same,Anti-elastase test: % inhibition relative to the inhibitor-free control,[1]; [8],29%
same,Free radical inhibiting activity,[4],67%
"CCCC(=O)Oc1cc(OC(=O)CCC)c2c(c1)OC(c1ccc(OC)c(OC(=O)CCC)c1)CC2=O (stereo not shown) [Example 12, hesperitin triacylated by C4]",Skin irritation,[5],did not cause any irritation phenomena
hesperitin triacylated by C18:2 [Example 15],Skin irritation,[5],did not cause any irritation phenomena
Hesperitin monoacylated by C12 [Example 7],Anti-elastase test: % inhibition relative to the inhibitor-free control,[1]; test concentration 0.103 mol/l,100%
same,Anti-elastase test: % inhibition relative to the inhibitor-free control,[1]; [6],50%
same,Anti-elastase test: % inhibition relative to the inhibitor-free control,[1]; [7],36%
same,Anti-elastase test: % inhibition relative to the inhibitor-free control,[1]; [8],34%
